Experimental data published in publication PMC8866981 (Journal of Experimental Pharmacology, 2021).

Key:
HIV-1IIIB = assay type: cell-based, Human immunodeficiency virus type 1; conditions: HIV-1IIIB infected MT-4 cells, 5 days, mean ± S.E.M (n=3)
[1] = tested on: Human T-lymphocytic MT-4 cells; test: Cytotoxicity test, MTT colorimetric assay; assay type: cell-based; conditions: 5 days, percentage inhibition of cell growth, mean ± S.E.M (n=3)

| SMILES | EmaxAV (maximum antiviral effect %, CPE inhibition %) (HIV-1IIIB) | EmaxC (maximum cytotoxic effect %) [1] |
| --- | --- | --- |
| Cc1cn([C@H]2C[C@H](N=[N+]=[N-])[C@@H](CO)O2)c(=O)[nH]c1=O [AZT, zidovudine] | 83% |  |
| Cc1ccnc2c1NC(=O)c1cccnc1N2C1CC1 [NVP, nevirapine] |  | > 35% |
